Measurements: patent US5856506A, “Phosphatase inhibitors and methods of use thereof” (University of Pittsburgh, priority 1997, dated 1999)

How the values were obtained:
Assay type in all cases: biochemical
[1] = system: Recombinant human CDC25B; assay: CDC25B phosphatase assay, GST fusion protein, fluorescein diphosphate; settings: none = 100; 1 hour preincubation; concentration not given (0.3-100 μM tested)
Description: The compounds of the present invention are also capable of inhibiting dual specificity phosphatases, for example CDC25A and CDC25B. Phosphatases CDC25A and CDC25B are disclosed in U.S. Pat. No. 5,441,880. Inhibition of dual specificity phosphatases is defined herein as inhibition of the activity of CDC25A and/or CDC25B at a concentration of 100 μM of the inhibitor compound. In a preferred embodiment, the activity of the phosphatase is inhibited by at least 10%. In more preferred embodiments, the activity of the phophatase is inhibited by at least 25%, or even more preferably, by at least 50%. The ability of the compounds of the present invention to inhibit the phosphatases can be determined by measuring the effect of the compounds on the ability of CDC25 or CDC25B to dephosphorylate a substrate. Appropriate methods are known to those of ordinary skill in the art, and include, for example, calorimetric assays. A suitable assay is described in U.S. Pat. No. 5,441,880, the disclosure of which is incorporated herein by reference. […] The assay may be performed as a rapid calorimetric microtitration plate assay.
Compounds 1a-1r were assessed for ability to inhibit CDC25A and CDC25B activity. Recombinant human CDC25A and CDC25B were obtained as a glutahione-S-transferase (GST) fusion protein using human cDNA and standard molecular biological methods. The cDNA constructs are in a plasmid that is expressed in E. coli under the control of isopropyl-beta-D-[…] (IPTG). The bacterial pellet was disrupted by sonication, and centrifuged at 10,000×g. Using glutathione-agarose beads, the fusion protein was purified from postmicrosomal supernant fraction as described by Baratte et al. (1992) Anticancer Res. 12: 873-880. Phosphatase activity was assayed with a spectrofluorimeter under the following conditions: 1 unit (1 U=amount of protein that induces 33 fluoresence units/minute of product) of fusion protein in a final incubation mixture (150 μL) comprised of 25 mM Tris (pH=8.0), 5 mM EDTA, 33 μg/ml BSA, and 20 μM fluorescein diphosphate in 96-well microtiter plates. Plates were preincubated for 1 hour with 0 (control), 0.3, 1, 3, 10, 30, 100 μM compounds at room temperature. After the 1 hour incubation at room temperature, fluorescence of the fluorescein product (Ex. 485 nm; Em. 530 nm) were measured with a Biosystems Cytofluor II (Framingham, Mass.).

[2] = system: PP1; assay: Phosphatase activity by [32P] release from phosphorylase-a or phosphohistone (Honkanen method); settings: 100 μM inhibitor; none = 100
Description: (§1) It has been found in accordance with the present invention that compounds of formula I are capable of inhibiting serine/threonine protein phosphatases. Inhibition of serine/threonine protein phosphatases is defined herein as inhibition of the activity of one or more of PP1, PP2A or PP3 at a concentration of 100 μM or less of the inhibitor compound. In a preferred embodiment, the activity of the phosphatase is inhibited by at least 10%. In more preferred embodiments, the activity of the phophatase is inhibited by at least 25%, or even more preferably, by at least 50%. Inhibition of PP1, PP2A or PP3 can be assessed by methods known to one of ordinary skill in the art. Suitable assays are described, for example by Honkanen et al. (1994) Toxicon 32:339 and Honkanen et al. (1990) J. Biol. Chem. 265: 19401, the disclosures of which are incorporated herein by reference. Briefly, phosphatase activity is determined by quantifying the [^32 p] released from a ^32 p-labeled substrate such as phosphohistone or phosphorylase-a. Decreased [^32 p] release in the presence of the compounds of the present invention relative to control samples provides a measure of the ability of the compounds of the invention to inhibit PP1, PP2A or PP3.
(§2) Phosphatase activity and the inhibitory activity of the compounds of Table 1 were determined by the method of Honkanen et al. (1994) Toxicon 32:339. Briefly, phosphatase activity against phosphorylase-a or phosphohistone was 25 determined by the quantification of liberated [^32 p]. Assays, 80 μl total volume, containing 50 mM Tris-HCl, pH 7.4, 0.5 mM DTT, 1 mM EDTA (assay buffer) and [^32 p]phosphoprotein (1-2 μM PO4), were conducted as described previously (Honkanen et al., 1991 Mol. Pharmac. 40:577). Dephosphorylation reactions were routinely conducted for 5-10 min. using phosphorylase-a as a substrate and for 10-20 min. using phosphohistone. In all assays the dephosphorylation of substrate was kept to less than 10% of the total phosphorylated substrate available, and the reactions were adjusted to ensure that enzyme activity was linear with respect to enzyme concentration and time. [^32 p]Phosphate liberated by the enzymes was extracted as a phosphomolybdate complex and measured according to the methods of Killilea et al. (1978) Arch. Biochem. Biophys. 191:638. Inhibition of protein phosphatase activity by inhibitors was determined by adding the 100 μM of inhibitors to the enzyme mixture 5-10 min. prior to initiating the reaction with the addition of substrate.

[3] = system: PP3; assay: as above; settings: 100 μM inhibitor; none = 100
Description: as §1, §2

[4] = molecular target: PP2A (Bos taurus, UniProt P67774); assay: as above; settings: 100 μM inhibitor; none = 100; read-out: PP2A, percent inhibition relative to control (100%)
Chain of PP2A (P67774 whole entry): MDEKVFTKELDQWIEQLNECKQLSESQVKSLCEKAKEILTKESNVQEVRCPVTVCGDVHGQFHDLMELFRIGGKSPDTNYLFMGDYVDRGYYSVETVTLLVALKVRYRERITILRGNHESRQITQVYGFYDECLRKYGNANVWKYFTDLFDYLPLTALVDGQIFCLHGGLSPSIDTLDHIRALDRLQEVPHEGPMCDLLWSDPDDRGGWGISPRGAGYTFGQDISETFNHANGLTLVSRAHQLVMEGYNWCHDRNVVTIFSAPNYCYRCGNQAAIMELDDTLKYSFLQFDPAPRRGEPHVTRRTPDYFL
Description: as §1, §2

| SMILES | CDC25B activity remaining, percent of control [1] | PP1 remaining activity, percent of control [2] | PP3 remaining activity, percent of control [3] | PP2A remaining activity, % of control at 100 µM [4] |
| --- | --- | --- | --- | --- |
| CCCCCCCCCC(=O)NC(CCC(=O)N(CCCCCC)CCNC(=O)c1nc(-c2ccccc2)oc1-c1ccccc1)C(=O)O (stereo not shown) [Compound 1e] | 17% | 153% | 71% | 152% |
| CN(CCNC(=O)c1nc(-c2ccccc2)oc1-c1ccccc1)C(=O)CCC(NC(=O)C=Cc1ccccc1)C(=O)O (stereo not shown) [Compound 1p] | 87% | 65% | 68% | 99% |
| Cc1oc(-c2ccccc2)nc1C(=O)NCCN(C)C(=O)CCC(NC(=O)CCc1ccccc1)C(=O)O (stereo not shown) [Compound 1g] | 61% | 53% | 21% | 109% |
| CCCCCCCCCC(=O)NC(CCC(=O)N(CCNC(=O)c1nc(-c2ccccc2)oc1C)Cc1ccccc1)C(=O)O (stereo not shown) [Compound 1c] | 42% | – | 28% | 129% |
| Cc1oc(-c2ccccc2)nc1C(=O)NCCN(Cc1ccccc1)C(=O)CCC(NC(=O)C=Cc1ccccc1)C(=O)O (stereo not shown) [Compound 1o] | 66% | 64% | 13% | 88% |
| CCCCCCN(CCNC(=O)c1nc(-c2ccccc2)oc1-c1ccccc1)C(=O)CCC(NC(=O)C=Cc1ccccc1)C(=O)O (stereo not shown) [Compound 1q] | 62% | 85% | 28% | 60% |
| O=C(CCc1ccccc1)NC(CCC(=O)N(CCNC(=O)c1nc(-c2ccccc2)oc1-c1ccccc1)Cc1ccccc1)C(=O)O (stereo not shown) [Compound 1l] | 69% | 59% | 22% | 69% |
| CCCCCCCCCC(=O)NC(CCC(=O)N(CCCCCC)CCNC(=O)c1nc(-c2ccccc2)oc1C)C(=O)O (stereo not shown) [Compound 1b] | 44% | 59% | 32% | 135% |
| CCCCCCN(CCNC(=O)c1nc(-c2ccccc2)oc1-c1ccccc1)C(=O)CCC(NC(=O)CCc1ccccc1)C(=O)O (stereo not shown) [Compound 1k] | 76% | 48% | 24% | 67% |
| Cc1oc(-c2ccccc2)nc1C(=O)NCCN(C)C(=O)CCC(NC(=O)C=Cc1ccccc1)C(=O)O (stereo not shown) [Compound 1m] | 45% | 111% | 60% | 108% |
| CCCCCCCCCC(=O)NC(CCC(=O)N(C)CCNC(=O)c1nc(-c2ccccc2)oc1C)C(=O)O (stereo not shown) [Compound 1a] | 106% | 121% | 76% | 100% |
| CCCCCCN(CCNC(=O)c1nc(-c2ccccc2)oc1C)C(=O)CCC(NC(=O)C=Cc1ccccc1)C(=O)O (stereo not shown) [Compound 1n] | 66% | 40% | 26% | 87% |
| O=C(C=Cc1ccccc1)NC(CCC(=O)N(CCNC(=O)c1nc(-c2ccccc2)oc1-c1ccccc1)Cc1ccccc1)C(=O)O (stereo not shown) [Compound 1r] | 56% | 53% | 15% | 68% |
| Cc1oc(-c2ccccc2)nc1C(=O)NCCN(Cc1ccccc1)C(=O)CCC(NC(=O)CCc1ccccc1)C(=O)O (stereo not shown) [Compound 1i] | 63% | – | 14% | 80% |
| CN(CCNC(=O)c1nc(-c2ccccc2)oc1-c1ccccc1)C(=O)CCC(NC(=O)CCc1ccccc1)C(=O)O (stereo not shown) [Compound 1j] | 90% | 80% | 38% | 72% |
